# From US20060069132A1, “Azolecarboxamide herbicides” (priority 2004, published 2006)
# Read-outs that look alike come from different tables or passages of the source.
# Assays:
# large crabgrass = experiment: Test B pre-/postemergence herbicide test; type: in vivo, Digitaria sanguinalis; conditions: Digitaria sanguinalis; for pest or weed control at 125 g/ha: 125 g ai/ha; for pest or weed control at 500 g/ha: 500 g ai/ha
# Summary of the method: (§1)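 Herbicidal effect was judged by eye on a 0–100 scale after plants stood 13 to 15 days in the greenhouse following pre- or postemergence treatment with surfactant-containing formulations.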
# wheat = experiment: Test B postemergence herbicide test; type: in vivo, Triticum aestivum; conditions: Triticum aestivum, post-emergence, 336 h, postemergence, visual rating, scale 0 (no effect) to 100 (complete control), read-out: Wheat plant response rating
# Summary of the method: (§2)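 Scale 0–100: zero equals no visible effect, 100 complete control, judged by eye relative to controls. Timing: 13 to 15 days in greenhouse post-treatment. Growth stage at spraying: two leaves (paddy) or one to four leaves, 2–18 cm (postemergence).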
# cocklebur = experiment: Test B pre-/postemergence herbicide test; type: in vivo, Xanthium strumarium; conditions: Xanthium strumarium; for pest or weed control at 125 g/ha: 125 g ai/ha; for pest or weed control at 500 g/ha: 500 g ai/ha
# Summary of the method: (§3)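 Formulation: non-phytotoxic solvent mix with surfactant. Timing: preemergence on seed and postemergence on 2–18 cm plants, applied concurrently. Readout after 13–15 d greenhouse: visual 0–100 control rating against controls.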
# pigweed = experiment: Test B pre-/postemergence herbicide test; type: in vivo, Amaranthus retroflexus; conditions: Amaranthus retroflexus, 336 h; for pest or weed control at 125 g/ha: 125 g ai/ha; for pest or weed control at 500 g/ha: 500 g ai/ha
# Summary of the method: as §1
# barnyardgrass [1] = experiment: Test B pre-/postemergence herbicide test; type: in vivo, Echinochloa crus-galli; conditions: Echinochloa crus-galli; for pest or weed control at 125 g/ha: 125 g ai/ha; for pest or weed control at 500 g/ha: 500 g ai/ha
# Summary of the method: as §3
# [2] = tested on: small flower umbrella sedge; experiment: Test B flooded paddy test; type: in vivo, Cyperus difformis; conditions: Cyperus difformis, 336 h, 1000 g ai/ha, visual rating, scale 0 to 100 (0 no effect, 100 complete control), 13 to 15 days, read-out: Sedge, Umbrella plant response rating
# Summary of the method: as §2
# blackgrass = experiment: Test B postemergence herbicide test; type: in vivo, Alopecurus myosuroides; conditions: Alopecurus myosuroides, post-emergence, 336 h, postemergence, visual rating, scale 0 (no effect) to 100 (complete control), read-out: Blackgrass plant response rating
# Summary of the method: as §2
# lambsquarters = experiment: Test B pre-/postemergence herbicide test; type: in vivo, Chenopodium album; conditions: Chenopodium album, 336 h; for pest or weed control at 125 g/ha: 125 g ai/ha; for pest or weed control at 500 g/ha: 500 g ai/ha
# Summary of the method: as §1
# barnyardgrass [3] = experiment: Test B flooded paddy test; type: in vivo, Echinochloa crus-galli; conditions: Echinochloa crus-galli, 336 h, 1000 g ai/ha, visual rating, scale 0 to 100 (0 no effect, 100 complete control), 13 to 15 days, read-out: Barnyardgrass plant response rating
# Summary of the method: as §2
# giant foxtail = experiment: Test B pre-/postemergence herbicide test; type: in vivo, Setaria faberi; conditions: Setaria faberi, 336 h; for pest or weed control at 125 g/ha: 125 g ai/ha; for pest or weed control at 500 g/ha: 500 g ai/ha
# Summary of the method: as §1
# morningglory = experiment: Test B pre-/postemergence herbicide test; type: in vivo, Ipomoea coccinea; conditions: Ipomoea, 336 h, visual rating; for pest or weed control at 500 g/ha: 500 g ai/ha
# Summary of the method: as §3
# rice = experiment: Test B flooded paddy test; type: in vivo, Oryza sativa; conditions: Oryza sativa, 336 h, 1000 g ai/ha, visual rating, scale 0 to 100 (0 no effect, 100 complete control), 13 to 15 days, read-out: Rice plant response rating
# Summary of the method: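 Treated at 2-leaf (paddy) or 1–4-leaf, 2–18 cm (postemergence); greenhouse 13–15 d; visual score vs control, 0 none to 100 complete control; dash = not tested.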
# Surinam grass = experiment: Test B pre-/postemergence herbicide test; type: in vivo, Urochloa decumbens; conditions: Urochloa decumbens; for pest or weed control at 125 g/ha: 125 g ai/ha; for pest or weed control at 500 g/ha: 500 g ai/ha
# Summary of the method: as §1
# wild oat = experiment: Test B postemergence herbicide test; type: in vivo, Avena fatua; conditions: Avena fatua, post-emergence, 336 h, postemergence, visual rating, scale 0 (no effect) to 100 (complete control), read-out: Oat, Wild plant response rating
# Summary of the method: as §2
# velvetleaf = experiment: Test B pre-/postemergence herbicide test; type: in vivo, Abutilon theophrasti; conditions: Abutilon theophrasti, 336 h; for pest or weed control at 125 g/ha: 125 g ai/ha; for pest or weed control at 500 g/ha: 500 g ai/ha
# Summary of the method: as §1
# [4] = post-emergence, postemergence, visual rating, scale 0 (no effect) to 100 (complete control), read-out: Crabgrass, Large plant response rating
# [5] = post-emergence, postemergence, visual rating, scale 0 (no effect) to 100 (complete control), read-out: Cocklebur plant response rating
# [6] = post-emergence, postemergence, visual rating, scale 0 (no effect) to 100 (complete control), read-out: Pigweed plant response rating
# [7] = post-emergence, postemergence, visual rating, scale 0 (no effect) to 100 (complete control), read-out: Barnyardgrass plant response rating
# [8] = post-emergence, postemergence, visual rating, scale 0 (no effect) to 100 (complete control), read-out: Lambsquarters plant response rating
# [9] = post-emergence, postemergence, visual rating, scale 0 (no effect) to 100 (complete control), read-out: Foxtail, Giant plant response rating
# [10] = post-emergence, postemergence, visual rating, scale 0 (no effect) to 100 (complete control), read-out: Surinam Grass plant response rating
# [11] = post-emergence, postemergence, visual rating, scale 0 (no effect) to 100 (complete control), read-out: Velvetleaf plant response rating
structure (smiles),measurement,setting,value
"CCc1nn(C(C)(C)C)cc1C(=O)Nc1cc(C(=O)N(C)C)ccc1F [Compound 222, N-[5-[(dimethylamino)carbonyl]-2-fluorophenyl]-1-(1,1-dimethylethyl)-3-ethyl-1H-pyrazole-4-carboxamide]",pest or weed control at 125 g/ha,large crabgrass; [4],10%
same,pest or weed control at 500 g/ha,large crabgrass; [4],20%
same,pest or weed control at 125 g/ha,"large crabgrass; pre-emergence, 0 = no effect, 100 = complete control, read-out: Crabgrass, Large plant response rating (0 to 100 scale)",90%
same,pest or weed control at 500 g/ha,"large crabgrass; pre-emergence, visual rating, 0 = no effect, 100 = complete control, read-out: Plant response rating, Crabgrass, Large",100%
same,plant injury at 125 g/ha,wheat; 125 g ai/ha,0%
same,plant injury at 500 g/ha,wheat; 500 g ai/ha,20%
same,pest or weed control at 125 g/ha,cocklebur; [5],20%
same,pest or weed control at 500 g/ha,cocklebur; [5],60%
same,pest or weed control at 125 g/ha,"cocklebur; pre-emergence, 0 = no effect, 100 = complete control, read-out: Cocklebur plant response rating (0 to 100 scale)",30%
same,pest or weed control at 500 g/ha,"cocklebur; pre-emergence, visual rating, 0 = no effect, 100 = complete control, read-out: Plant response rating, Cocklebur",80%
same,pest or weed control at 125 g/ha,pigweed; [6],40%
same,pest or weed control at 500 g/ha,pigweed; [6],60%
same,pest or weed control at 125 g/ha,"pigweed; pre-emergence, 0 = no effect, 100 = complete control, read-out: Pigweed plant response rating (0 to 100 scale)",90%
same,pest or weed control at 500 g/ha,"pigweed; pre-emergence, visual rating, 0 = no effect, 100 = complete control, read-out: Plant response rating, Pigweed",100%
same,pest or weed control at 125 g/ha,barnyardgrass [1]; [7],10%
same,pest or weed control at 500 g/ha,barnyardgrass [1]; [7],20%
same,pest or weed control at 125 g/ha,"barnyardgrass [1]; pre-emergence, 0 = no effect, 100 = complete control, read-out: Barnyardgrass plant response rating (0 to 100 scale)",90%
same,pest or weed control at 500 g/ha,"barnyardgrass [1]; pre-emergence, visual rating, 0 = no effect, 100 = complete control, read-out: Plant response rating, Barnyardgrass",100%
same,pest or weed control at 1000 g/ha,[2],70%
same,pest or weed control at 125 g/ha,blackgrass; 125 g ai/ha,0%
same,pest or weed control at 500 g/ha,blackgrass; 500 g ai/ha,20%
same,pest or weed control at 125 g/ha,lambsquarters; [8],50%
same,pest or weed control at 500 g/ha,lambsquarters; [8],70%
same,pest or weed control at 125 g/ha,"lambsquarters; pre-emergence, 0 = no effect, 100 = complete control, read-out: Lambsquarters plant response rating (0 to 100 scale)",100%
same,pest or weed control at 500 g/ha,"lambsquarters; pre-emergence, visual rating, 0 = no effect, 100 = complete control, read-out: Plant response rating, Lambsquarters",100%
same,pest or weed control at 1000 g/ha,barnyardgrass [3],90%
same,pest or weed control at 125 g/ha,giant foxtail; [9],10%
same,pest or weed control at 500 g/ha,giant foxtail; [9],30%
same,pest or weed control at 125 g/ha,"giant foxtail; pre-emergence, 0 = no effect, 100 = complete control, read-out: Foxtail, Giant plant response rating (0 to 100 scale)",60%
same,pest or weed control at 500 g/ha,"giant foxtail; pre-emergence, visual rating, 0 = no effect, 100 = complete control, read-out: Plant response rating, Foxtail, Giant",90%
same,pest or weed control at 125 g/ha,"morningglory; post-emergence, postemergence, 125 g ai/ha, scale 0 (no effect) to 100 (complete control), read-out: Morningglory plant response rating",40%
same,pest or weed control at 500 g/ha,"morningglory; post-emergence, postemergence, scale 0 (no effect) to 100 (complete control), read-out: Morningglory plant response rating",80%
same,pest or weed control at 500 g/ha,"morningglory; pre-emergence, 0 = no effect, 100 = complete control, read-out: Plant response rating, Morningglory",100%
same,plant injury at 1000 g/ha,rice,90%
same,pest or weed control at 125 g/ha,Surinam grass; [10],10%
same,pest or weed control at 500 g/ha,Surinam grass; [10],30%
same,pest or weed control at 125 g/ha,"Surinam grass; pre-emergence, 0 = no effect, 100 = complete control, read-out: Surinam Grass plant response rating (0 to 100 scale)",90%
same,pest or weed control at 500 g/ha,"Surinam grass; pre-emergence, visual rating, 0 = no effect, 100 = complete control, read-out: Plant response rating, Surinam Grass",100%
same,pest or weed control at 125 g/ha,wild oat; 125 g ai/ha,0%
same,pest or weed control at 500 g/ha,wild oat; 500 g ai/ha,20%
same,pest or weed control at 125 g/ha,velvetleaf; [11],50%
same,pest or weed control at 500 g/ha,velvetleaf; [11],60%
same,pest or weed control at 125 g/ha,"velvetleaf; pre-emergence, 0 = no effect, 100 = complete control, read-out: Velvetleaf plant response rating (0 to 100 scale)",100%
same,pest or weed control at 500 g/ha,"velvetleaf; pre-emergence, visual rating, 0 = no effect, 100 = complete control, read-out: Plant response rating, Velvetleaf",100%
